Source: the supplement of paper PMC10307832

Columns and labels:
Experiment in all cases: relative viability (nuclei count vs DMSO), 5 days (fraction); higher = more cells survive
AZD1208 + OSI-027 = compound: N[C@@H]1CCCN(c2c(/C=C3\SC(=O)NC3=O)cccc2-c2ccccc2)C1 [AZD1208] + COc1cccc2cc(-c3nc([C@H]4CC[C@H](C(=O)O)CC4)n4ncnc(N)c34)[nH]c12 [OSI-027] (partner 0.5 µM)
Outline: (§1)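 Relative viability divides the nuclei count in treated wells by that in vehicle wells. Lung cancer cell lines were seeded in 1536-well plates, dosed by pin tool the next day, and fixed and stained after 5 days in one step with final 0.05% Triton X-100, 1% formaldehyde and 1 ug/ml Hoechst. Dosing was a single drug or a fixed anchor-drug dose plus five library-drug doses (not always all listed) in √10 steps, and values are medians of duplicate plates imaged at 4×.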

AZD1208 + Olaparib = compound: N[C@@H]1CCCN(c2c(/C=C3\SC(=O)NC3=O)cccc2-c2ccccc2)C1 [AZD1208] + O=C(c1cc(Cc2n[nH]c(=O)c3ccccc23)ccc1F)N1CCN(C(=O)C2CC2)CC1 [Olaparib] (partner 8 µM)
Outline: as §1

XMD14-99 + Lapatinib = compound: CN1CCN(CC1)C2=CC(=C(C=C2)NC3=NC(=C(S3)C(=O)C4=C(C=CC=C4Cl)Cl)N)OC [XMD14-99] + CS(=O)(=O)CCNCc1ccc(-c2ccc3ncnc(Nc4ccc(OCc5cccc(F)c5)c(Cl)c4)c3c2)o1 [Lapatinib] (partner 2 µM)
Outline: as §1

XMD14-99 + Foretinib = compound: CN1CCN(CC1)C2=CC(=C(C=C2)NC3=NC(=C(S3)C(=O)C4=C(C=CC=C4Cl)Cl)N)OC [XMD14-99] + COc1cc2c(Oc3ccc(NC(=O)C4(C(=O)Nc5ccc(F)cc5)CC4)cc3F)ccnc2cc1OCCCN1CCOCC1 [Foretinib] (partner 0.25 µM)
Outline: as §1

Row | Cell Line | relative viability (AZD1208 + OSI-027; first compound 0.08 µM) | relative viability (AZD1208 + OSI-027; first compound 0.253 µM) | relative viability (AZD1208 + OSI-027; first compound 0.8 µM) | relative viability (AZD1208 + OSI-027; first compound 2.53 µM) | relative viability (AZD1208 + OSI-027; first compound 8 µM) | relative viability (AZD1208 + Olaparib; first compound 0.08 µM) | relative viability (AZD1208 + Olaparib; first compound 0.253 µM) | relative viability (AZD1208 + Olaparib; first compound 0.8 µM) | relative viability (AZD1208 + Olaparib; first compound 2.53 µM) | relative viability (AZD1208 + Olaparib; first compound 8 µM) | relative viability (XMD14-99 + Lapatinib; first compound 0.08 µM) | relative viability (XMD14-99 + Lapatinib; first compound 0.8 µM) | relative viability (XMD14-99 + Lapatinib; first compound 2.53 µM) | relative viability (XMD14-99 + Lapatinib; first compound 8 µM) | relative viability (XMD14-99 + Foretinib; first compound 0.08 µM) | relative viability (XMD14-99 + Foretinib; first compound 0.8 µM) | relative viability (XMD14-99 + Foretinib; first compound 2.53 µM) | relative viability (XMD14-99 + Foretinib; first compound 8 µM)
1 | 201T | 0.81 | 0.78 | 0.512 | 0.53 | 0.477 | 0.876 | 0.84 | 0.866 | 0.868 | 0.909 | 1.02 | 1.05 | 1 | 0.936 | 1.05 | 1.1 | 1.01 | 0.956
2 | A549 |  |  |  |  |  | 0.345 | 0.38 | 0.306 | 0.261 | 0.235 | 0.857 | 0.923 | 0.983 | 0.685 | 0.899 | 0.916 | 0.787 | 0.693
3 | A-427 | 0.453 | 0.543 | 0.469 | 0.41 | 0.378 | 0.674 | 0.758 | 0.605 | 0.713 | 0.661 | 1.14 | 0.984 | 0.999 | 0.898 | 1.04 | 0.988 | 0.814 | 0.712
4 | ABC-1 | 0.417 | 0.444 | 0.487 | 0.377 | 0.436 | 0.623 | 0.813 | 0.56 | 1.17 | 0.759 | 1.05 | 1.18 | 1.17 | 1.05 | 1.14 | 0.883 | 0.957 | 0.937
5 | BEN | 0.301 | 0.254 | 0.278 | 0.294 | 0.238 | 1.01 | 0.985 | 0.722 | 0.758 | 0.59 | 0.738 | 0.825 | 0.661 | 0.627 | 0.662 | 0.695 | 0.705 | 0.678
6 | CAL-12T | 0.61 | 0.668 | 0.583 | 0.506 | 0.436 | 0.81 | 0.737 | 0.633 | 0.711 | 0.797 | 0.603 | 0.549 | 0.545 | 0.547 | 1.09 | 1.06 | 0.876 | 1.02
7 | COR-L23 | 0.762 | 0.779 | 0.642 | 0.728 | 0.452 | 0.307 | 0.354 | 0.372 | 0.304 | 0.321 | 0.906 | 0.924 | 0.931 | 0.517 | 0.901 | 0.962 | 0.812 | 0.572
8 | COR-L 105 | 0.613 | 0.745 | 0.542 |  | 0.736 | 0.702 | 0.586 | 0.661 | 0.736 | 0.594 | 0.404 | 0.293 | 0.354 | 0.32 | 1.06 | 1.25 | 0.991 | 0.734
9 | Calu-6 |  |  |  |  |  | 0.572 | 0.648 | 0.591 | 0.592 | 0.639 | 0.996 | 0.934 | 0.936 | 0.735 | 0.897 | 0.905 | 0.843 | 0.593
10 | ChaGo-K-1 | 0.579 | 0.546 | 0.49 | 0.421 | 0.402 | 0.426 | 0.431 | 0.378 | 0.437 | 0.434 |  |  |  |  | 0.82 | 0.939 | 0.88 | 0.913
11 | EBC-1 |  |  |  |  |  | 0.709 | 0.707 | 0.63 | 0.687 | 0.624 | 0.252 | 0.207 | 0.2 | 0.173 | 0.113 | 0.11 | 0.112 | 0.0979
12 | EKVX | 0.674 | 0.651 | 0.634 | 0.673 | 0.648 | 0.793 | 0.941 | 0.811 | 0.829 | 0.821 | 0.187 | 0.18 | 0.193 | 0.163 | 0.768 | 0.888 | 0.876 | 0.662
13 | EMC-BAC-2 | 0.364 | 0.37 | 0.346 | 0.296 | 0.315 | 0.517 | 0.536 | 0.494 | 0.472 | 0.448 | 0.87 | 0.905 | 0.859 | 0.724 | 1.05 | 0.978 | 0.854 | 0.859
14 | EPLC-272H | 0.255 | 0.289 | 0.276 | 0.247 | 0.281 | 0.647 | 0.773 | 0.906 | 0.687 | 0.656 | 0.927 | 0.943 | 0.924 | 0.846 | 0.748 | 0.764 | 0.684 | 0.444
15 | H3255 | 0.506 | 0.54 | 0.429 | 0.491 | 0.543 | 0.593 | 0.611 | 0.557 | 0.597 | 0.569 | 0.234 | 0.252 | 0.326 | 0.164 | 0.956 | 0.9 | 0.737 | 0.709
16 | HARA | 0.467 | 0.497 | 0.468 | 0.433 | 0.277 | 0.825 | 0.471 | 0.646 | 0.743 | 0.895 | 0.701 | 1.03 | 0.647 | 0.362 | 0.791 | 0.793 | 0.748 | 0.757
17 | HCC-15 | 0.63 | 0.673 | 0.491 | 0.467 | 0.437 | 0.664 | 0.718 | 0.66 | 0.636 | 0.613 | 0.867 | 0.894 | 0.792 | 0.611 | 1.01 | 1.01 | 0.9 | 0.693
18 | HCC-44 | 0.504 | 0.496 | 0.512 | 0.331 | 0.485 | 0.989 | 0.918 | 0.999 | 0.996 | 0.919 | 1.12 | 0.951 | 1.09 | 0.861 |  |  |  | 
19 | HCC-78 | 0.41 | 0.395 | 0.375 | 0.374 | 0.332 | 0.859 | 0.904 | 0.762 | 0.815 | 0.754 | 0.911 | 0.751 | 0.858 | 0.648 | 0.506 | 0.489 | 0.566 | 0.53
